Data published in patent US8163756B2 (priority 2004, dated 2012).

What was measured:
Type in all cases: biochemical
KDR kinase = KDR kinase (Homo sapiens, UniProt P35968, DEL940-989/E990V); test: KDR kinase assay K1 (pyruvate kinase/lactate dehydrogenase coupled, spectrophotometric); details: Method K1; read-out: KDR Data (IC50)
Procedure: (§1) IC50 values were calculated from a series of percent inhibition values determined at a range of inhibitor concentrations using software routines as implemented in the GraphPad Prism software package.

B-Raf(V599E) kinase = B-Raf(V599E) kinase (Homo sapiens, UniProt P15056, V600E); test: B-Raf(V599E) kinase assay B1 (construct 1, MEK1 substrate, coupled spectrophotometric)
Sequence of B-Raf(V599E) kinase (P15056 with tags, fused parts or gaps V600E): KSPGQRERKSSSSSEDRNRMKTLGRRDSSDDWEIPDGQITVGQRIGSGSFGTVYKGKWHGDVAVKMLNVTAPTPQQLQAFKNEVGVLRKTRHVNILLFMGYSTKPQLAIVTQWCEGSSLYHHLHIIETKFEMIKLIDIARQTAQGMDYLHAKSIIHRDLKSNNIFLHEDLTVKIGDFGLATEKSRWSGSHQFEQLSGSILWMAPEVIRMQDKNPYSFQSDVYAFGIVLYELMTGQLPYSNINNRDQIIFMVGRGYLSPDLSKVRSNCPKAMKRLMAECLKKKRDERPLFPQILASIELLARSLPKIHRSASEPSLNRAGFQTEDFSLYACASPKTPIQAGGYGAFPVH
Procedure: The test compounds were incubated with the reaction mixtureat 30° C. for 2 h. […] The reaction rate was calculated using the […] time frame. […] IC50 values were calculated from a series of percent inhibition values determined at a range of inhibitor concentrations using software routines as implemented in the GraphPad Prism software package.

[1] = biological target: phosphorylated p-38-alpha kinase (Homo sapiens, UniProt Q16539); test: P-38 alpha kinase assay P1 (coupled spectrophotometric, 2 h pre-incubation); details: method P1 (2 h pre-incubation); read-out: P-38 Data
Sequence of phosphorylated p-38-alpha kinase (Q16539 1-360 isoform Q16539-2): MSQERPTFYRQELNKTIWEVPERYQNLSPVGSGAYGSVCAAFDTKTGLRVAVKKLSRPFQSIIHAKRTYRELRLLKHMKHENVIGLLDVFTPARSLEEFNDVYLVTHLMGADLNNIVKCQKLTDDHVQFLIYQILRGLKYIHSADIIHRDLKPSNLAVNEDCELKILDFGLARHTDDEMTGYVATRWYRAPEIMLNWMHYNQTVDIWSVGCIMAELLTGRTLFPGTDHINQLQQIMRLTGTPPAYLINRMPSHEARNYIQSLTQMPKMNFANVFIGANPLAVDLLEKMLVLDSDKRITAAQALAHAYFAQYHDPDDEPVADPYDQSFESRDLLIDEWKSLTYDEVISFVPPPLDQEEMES

Abl kinase = biological target: T1, Abl kinase (Homo sapiens, UniProt P00519); test: Abl kinase assay A1 (pyruvate kinase/lactate dehydrogenase coupled, spectrophotometric); details: Method A1; read-out: Abl Data (IC50)
T1 sequence (P00519 229-512): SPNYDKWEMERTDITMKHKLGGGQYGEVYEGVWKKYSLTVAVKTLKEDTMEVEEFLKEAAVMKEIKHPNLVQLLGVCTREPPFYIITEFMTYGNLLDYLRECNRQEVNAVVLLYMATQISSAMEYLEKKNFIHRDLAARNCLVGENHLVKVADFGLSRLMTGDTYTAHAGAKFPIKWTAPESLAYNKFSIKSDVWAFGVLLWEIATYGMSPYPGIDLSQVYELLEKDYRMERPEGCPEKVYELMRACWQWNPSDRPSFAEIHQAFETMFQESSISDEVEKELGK
Procedure: as §1

Sequence of KDR kinase (P35968 with tags, fused parts or gaps DEL940-989/E990V): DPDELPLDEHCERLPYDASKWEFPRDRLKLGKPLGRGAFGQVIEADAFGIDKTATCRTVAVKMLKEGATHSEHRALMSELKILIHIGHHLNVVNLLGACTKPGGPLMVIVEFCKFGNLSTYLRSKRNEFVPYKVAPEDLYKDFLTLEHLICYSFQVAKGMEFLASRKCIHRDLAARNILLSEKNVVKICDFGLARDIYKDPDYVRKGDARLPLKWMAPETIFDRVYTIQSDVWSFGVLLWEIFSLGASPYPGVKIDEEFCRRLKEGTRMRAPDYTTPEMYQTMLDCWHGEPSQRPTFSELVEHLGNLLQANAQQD

SMILES | IC50 (KDR kinase) | IC50 (B-Raf(V599E) kinase) | IC50 [1] | IC50 (Abl kinase)
CC(C)(C)c1cc(NC(=O)Nc2cccc(Cl)c2)n(-c2cccc(CN)c2)n1 [Example 227, 1-{1-[3-(aminomethyl)phenyl]-3-t-butyl-1H-pyrazol-5-yl}-3-(3-chloro-phenyl)urea] | 9.3 µM | 0.061 µM |  | 
CC(C)(C)c1cc(NC(=O)Nc2ccsc2)n(-c2ccc3c(c2)CCC(=O)N3)n1 [Example 316, 1-(3-t-butyl-1-(2-oxo-1,2,3,4-tetrahydro-quinolin-6-yl)-1H-pyrazol-5-yl)-3-(thiophen-3-yl)urea] | 12.9 µM | 0.066 µM |  | 
CC(C)(C)c1cc(NC(=O)Nc2cc(F)c(F)cc2F)n(-c2cccc(C(=N)N)c2)n1 [Example 214, 1-(3-t-butyl-1-(3-carbamimidoylphenyl)-1H-pyrazol-5-yl)-3-(2,4,5-trifluorophenyl)urea] | 0.84 µM |  |  | 
CC(C)(C)c1cc(NC(=O)Nc2cccc(Cl)c2)n(-c2cccc(CCN)c2)n1 [Example 257, 1-{1-[3-(2-aminoethyl)phenyl]-3-t-butyl-1H-pyrazol-5-yl}-3-(3-chlorophenyl)urea] | 6.6 µM | 0.062 µM |  | 
CC(C(N)=O)c1ccc(-n2nc(C(C)(C)C)cc2NC(=O)Nc2cccc(Cl)c2Cl)cc1 (stereo not drawn) [Example 203, 1-(1-(4-(1-amino-1-oxopropan-2-yl)phenyl)-3-t-butyl-1H-pyrazol-5-yl)-3-(2,3-dichlorophenyl)urea] | 0.16 µM |  | 0.017 µM | 
CNC(=O)C1NCCc2cc(-n3nc(C(C)(C)C)cc3NC(=O)Nc3cccc(Cl)c3Cl)ccc21 (stereo not drawn) [Example 204, 1-(3-t-butyl-1-(1-(methylcarbamoyl)-1,2,3,4-tetrahydroisoquinolin-6-yl)-1H-pyrazol-5-yl)-3-(2,3-dichlorophenyl)urea] | 0.099 µM |  | 0.009 µM | 
CC(C)(C)c1cc(NC(=O)Nc2cccc(F)c2F)n(-c2ccc3c(c2)CCN3)n1 [Example 307, 1-(3-t-butyl-1-(indolin-5-yl)-1H-pyrazol-5-yl)-3-(2,3-difluorophenyl)urea] | 0.72 µM | 0.01 µM |  | 
CC(C)(C)c1cc(NC(=O)Nc2cccc(Cl)c2Cl)n(-c2ccc3[nH]c(=O)ccc3c2)n1 [Example 155, 1-(3-t-butyl-1-(2-oxo-1,2-dihydroquinolin-6-yl)-1H-pyrazol-5-yl)-3-(2,3-dichlorophenyl)-urea] |  | 0.0014 µM | 0.11 µM | 0.26 µM
CC(C)(C)c1cc(NC(=O)Nc2ccc(Cl)cc2)n(-c2cc(CN)c3ccccc3c2)n1 [Example 68, 1-[1-(4-(aminomethyl)naphthalen-2-yl)-3-t-butyl-1H-pyrazol-5-yl]-3-(4-chlorophenyl)urea] | 1.4 µM | 0.024 µM |  | 
CC(C)(C)c1cc(NC(=O)NC2CCCCC2)n(-c2ccc3c(c2)CCC(=O)N3)n1 [Example 318, 1-(3-t-butyl-1-(2-oxo-1,2,3,4-tetrahydroquinolin-6-yl)-1H-pyrazol-5-yl)-3-cyclohexylurea] | 10.1 µM | 0.029 µM |  | 
CC(C)(C)c1cc(NC(=O)Nc2ccc(F)c(F)c2F)n(-c2ccc3ncccc3c2)n1 [Example 285, 1-(3-t-butyl-(quinolin-6-yl)-1H-pyrazol-5-yl)-3-(2,3,4-trifluorophenyl)urea] | 0.38 µM | 0.0051 µM |  | 
CC(=O)c1cc(-n2nc(C(C)(C)C)cc2NC(=O)Nc2cccc(Cl)c2Cl)cc2ccccc12 [Example 100, 1-(1-(4-acetylnaphthalen-2-yl)-3-t-butyl-1H-pyrazol-5-yl)-3-(2,3-dichlorophenyl)urea] |  | 0.0069 µM | 0.005 µM | 0.15 µM
CC(C)(C)c1cc(NC(=O)Nc2cccc(Cl)c2Cl)n(-c2ccc3c(c2)CC(C(=O)O)NC3)n1 (stereo not drawn) [Example 205] | 0.28 µM |  | 0.029 µM | 
CC(C)(C)c1cc(NC(=O)Nc2cc(F)cc(F)c2F)n(-c2cc(CNC(N)=O)c3ccccc3c2)n1 [Example 296] | 0.2 µM | 0.003 µM |  | 
CC(C)(C)c1cc(NC(=O)Nc2cc(F)cc(F)c2)n(-c2cc(CC(N)=O)c3ccccc3c2)n1 [Example 83, 1-(1-(4-(2-amino-2-oxoethyl)naphthalen-2-yl)-3-t-butyl-1H-pyrazol-5-yl)-3-(3,5-difluorophenyl)urea] |  | 0.0085 µM |  | 0.087 µM
CC(C(=O)O)c1ccc(-n2nc(C(C)(C)C)cc2NC(=O)Nc2cccc(Cl)c2Cl)cc1 (stereo not drawn) [Example 202, 2-(4-(3-t-butyl-5-(3-(2,3-dichlorophenyl)ureido)-1H-pyrazol-1-yl)phenyl)propanoic acid] | 0.23 µM |  | 0.012 µM | 
CC(C)(C)c1cc(NC(=O)Nc2cc(F)c(F)cc2F)n(-c2cc(CN)c3ccccc3c2)n1 [Example 71, 1-(1-(4-(aminomethyl)naphthalen-2-yl)-3-t-butyl-1H-pyrazol-5-yl)-3-(2,4,5-trifluorophenyl)urea] |  | 0.0041 µM |  | 0.09 µM

SMILES | IC50 (KDR kinase) | IC50 (B-Raf(V599E) kinase) | IC50 [1] | IC50 (Abl kinase)
CC(C)(C)c1cc(NC(=O)Nc2cc(F)c(F)cc2F)n(-c2cccc(C#N)c2)n1 [Example 207, 1-(3-t-butyl-1-(3-cyanophenyl)-1H-pyrazol-5-yl)-3-(2,4,5-trifluorophenyl)urea] | 0.34 µM |  |  | 
CC(C)(C)c1cc(NC(=O)Nc2cccc(Cl)c2Cl)n(-c2ccc3c(c2)C(N)CC3)n1 (stereo not drawn) [Example 105, 1-[2-(3-amino-indan-5-yl)-5-t-butyl-2H-pyrazol-3-yl]-3-(2,3-dichlorophenyl)urea] |  | 0.012 µM |  | 0.24 µM
CC(C)(C)c1cc(NC(=O)Nc2ccc(Cl)cc2)n(-c2ccc3c(c2)CNCC3)n1 [Example 124, 1-[3-t-butyl-1-(1,2,3,4-tetrahydroisoquinolin-7-yl)-1H-pyrazol-5-yl]-3-(4-chloro-phenyl)urea] |  | 0.173 µM |  | 1.4 µM
CC(C)(C)c1cc(NC(=O)Nc2cccc(Cl)c2Cl)n(-c2cccc(CC(=O)NCCO)c2)n1 [Example 37, 1-(3-t-butyl-{1-[3-(2-hydroxyethylamino)-2-oxo-thyl]-phenyl}-1H-pyrazol-5-yl)-3-(2,3-dichlorophenyl)-urea] |  | 0.0057 µM |  | 1.4 µM
CC(C)(C)c1cc(NC(=O)Nc2cccc(C#N)c2)n(-c2ccc3c(c2)CCN3)n1 [Example 111, 1-(3-t-butyl-1-(indolin-5-yl)-1H-pyrazol-5-yl)-3-(3-cyanophenyl)urea] |  | 0.097 µM |  | 0.62 µM
CC(C)(C)c1cc(NC(=O)Nc2ccccc2)n(-c2ccc3c(c2)CCC(=O)N3)n1 [Example 319, 1-(3-t-butyl-1-(2-oxo-1,2,3,4-tetrahydro-quinolin-6-yl)-1H-pyrazol-5-yl)-3-phenylurea] | 4.3 µM | 0.032 µM |  | 
CC(C)(C)c1cc(NC(=O)Nc2ccc(F)c(F)c2F)n(-c2cc(CC(N)=O)c3ccccc3c2)n1 [Example 80, 1-(1-(4-(2-amino-2-oxoethyl)naphthalen-2-yl)-3-t-butyl-1H-pyrazol-5-yl)-3-(2,3,4-trifluorophenyl)urea] |  | 0.0045 µM |  | 0.079 µM
CC(C)(C)c1cc(NC(=O)Nc2cccc(Cl)c2Cl)n(-c2ccc(CC(=O)N3CCS(=O)(=O)CC3)cc2)n1 [Example 495] | 1.5 µM | 0.055 µM |  | 
CC(C)(C)c1cc(NC(=O)Nc2cccc(Cl)c2Cl)n(-c2cccc(CC(=O)O)c2)n1 [Example 373, 2-(3-{3-t-butyl-5-[3-(2,3-dichlorophenyl)-ureido]-1H-pyrazol-1-yl}phenyl)acetic acid] |  | 0.0032 µM |  | 3.5 µM
CC(C)(C)c1cc(NC(=O)Nc2cccc(Cl)c2Cl)n(-c2ccc3c(c2)C(=O)CC3)n1 [Example 102, 1-[5-t-butyl-2-(3-oxo-indan-5-yl)-2H-pyrazol-3-yl]-3-(2,3-dichlorophenyl)urea] |  | 0.0025 µM |  | 0.11 µM
CC(C)(C)c1cc(NC(=O)Nc2ccccc2)n(-c2ccc3ncccc3c2)n1 [Example 282, 1-[3-t-butyl-1-(quinolin-6-yl)-1H-pyrazol-5-yl]-3-phenylurea] | 2.4 µM | 0.041 µM |  | 
CC(C)(C)c1cc(NC(=O)Nc2cccc(Cl)c2Cl)n(-c2ccc3c(c2)N(S(C)(=O)=O)CC3)n1 [Example 113, 1-(3-t-butyl-1-(1-(methylsulfonyl)indolin-6-yl)-1H-pyrazol-5-yl)-3-(2,3-dichlorophenyl)urea] |  | 0.0033 µM |  | 0.19 µM
CC(C)(C)c1cc(NC(=O)Nc2ccc(F)cc2F)n(-c2ccc3c(c2)CCNC3)n1 [Example 145, 1-(3-t-butyl-1-(1,2,3,4-tetrahydroiso-quinolin-6-yl)-1H-pyrazol-5-yl)-3-(2,4-difluorophenyl)-urea] |  | 0.013 µM |  | 0.41 µM
CC(C)(C)c1cc(NC(=O)Nc2cc(F)c(F)cc2F)n(-c2cc(CNC(N)=O)c3ccccc3c2)n1 [Example 297] | 0.27 µM | 0.0032 µM |  | 
CC(C)(C)c1cc(NC(=O)Nc2cccc(F)c2F)n(-c2cccc(CO)c2)n1 [Example 220, 1-{3-t-butyl-1-[3-(hydroxymethyl)phenyl]-1H-pyrazol-5-yl}-3-(2,3-difluorophenyl)urea] | 0.95 µM | 0.033 µM |  | 
COc1cccc(-n2nc(C(C)(C)C)cc2NC(=O)Nc2cccc(C#N)c2)c1 [Example 17, 1-(3-t-butyl-1-(3-methoxyphenyl)-1H-pyrazol-5-yl)-3-(3-cyanophenyl)urea] |  | 0.089 µM |  | 0.37 µM
